Data on 1 compound can be found in patent US20150323520A1, “DIAGNOSIS OF KIDNEY TRANSPLANT ACUTE REJECTION” (The Trustees of the Stevens Institute of Technology, priority 2014, published 2015).

The nature of the series: Mannitol in urine of kidney transplant patients the day after surgery (SERS / ESI-MS). It is filed as in vivo. The text has this:
FIG. 2 is a graph 200 showing SERS spectra for patients who have received kidney transplants and are experiencing AR. The graph 200 plots Raman intensity, in arbitrary units (“a.u.”), along a vertical axis 210 against Raman shift, in cm^−1, along a horizontal axis 220. As a baseline, the chart 200 includes a background spectrum 230 that may be measured when a SERS sensor (e.g., the device 100 of FIG. 1) is immersed in water. The chart 200 also includes three SERS spectra 240, 250, 260 that may be measured when the same SERS sensor is immersed in urine samples of three AR patients. It may be observed that each of the three SERS spectra 240, 250, 260 includes a corresponding peak 242, 252, 262, at a value of about 1360 cm^−1 along the horizontal axis 220. FIG. 3 is a graph 300 showing SERS spectra for patients who have received kidney transplants and are not experiencing AR. The graph 300 plots Raman intensity, in arbitrary units (“a.u.”), along a vertical axis 310 against Raman shift, in cm^−1, along a horizontal axis 320. As a baseline, the chart 300 includes a background spectrum 330 that may be measured when a SERS sensor (e.g., the device 100 of FIG. 1) is immersed in water (e.g., the same background spectrum as is shown in FIG. 2). The chart 300 also includes three SERS spectra 340, 350, 360 that may be measured when the same SERS sensor is immersed in urine samples of three kidney transplant recipients who are not experiencing AR. It may be observed that the three SERS spectra 340, 350, 360 lack a peak at a value of 1360 cm^−1 along the horizontal axis 320. […] The chart 500 includes a SERS spectrum 530 measured when a SERS sensor (e.g., the device 100 of FIG. 1) is immersed in a urine sample of a kidney transplant recipient who is experiencing graft failure. […] The spectra 610, 620, 630 plot intensity, an expression of relative abundance expressed as a percentage, along a vertical axis 640 against mass-to-charge ratio m/z, an expression of the ratio of atomic mass to charge number, which is a dimensionless quantity, along a horizontal axis 650. […]

As for `OC[C@@H](O)[C@@H](O)[C@H](O)[C@H](O)CO` [mannitol], the “mannitol in the urine” value (patients experiencing acute rejection (AR), urine 24 hours after surgery, mannitol (e.g., 20 grams) given during kidney transplant surgery) is given as “high levels”. Moreover, the metabolism of mannitol result (patients experiencing graft failure, SERS peak at 1360 cm^-1 in urine (FIG. 5)) was “do not metabolize mannitol well”. Where the note is “transplant patients whose surgery is successful (no AR), urine 24 hours after surgery, mannitol (e.g., 20 grams) given during kidney transplant surgery”, the “mannitol in patients' urine” value is recorded as “barely detectable”.
